The values that follow come from US6414114B2, “Disulfides and thiol compounds” (Dovetail Technologies, Inc., priority 1998, dated 2002).

SMILES strings stand for the structures.

Data set [1] is described as follows: Solubility in acetonitrile/water. The data set is classed as physicochemical. The settings on record: solvent acetonitrile/water as given in the value.
A further data set deals with Cloudman S-91 melanoma. Particulars: melanomas already established; cited from earlier work.
In the next data set the test system is NS-1 mouse myeloma. The settings on record: repeated administration as monotherapy soon after inoculation with relatively low doses of tumor; cited from earlier work.
The test system of another data set is MOPC-315 myeloma. Particulars: administered along with melphalan; cited from earlier work.
The subject of the next data set is B16 melanoma. Particulars: administered along with cyclophosphamide; cited from earlier work.

As for `O=C(CCNC(=O)OCc1ccccc1)NC(CS)C(=O)O` (stereo not drawn) [Cbz-beta-Ala-Cys], the Solubility entry in data set [1] is recorded as “Soluble in 20% Acetonitrile/Water”.

In the case of `O=C(CCNC(=O)OCc1ccccc1)N[C@@H](CSSC[C@H](NC(=O)CCNC(=O)OCc1ccccc1)C(=O)O)C(=O)O` [Cbz-βAla-Cystine-βAla-Cbz, Cbz-beta-Ala-Cystine-beta-Ala-Cbz], the Solubility entry in data set [1] is “Soluble in 30% Acetonitrile/water”.

For the molecule `NCCC(=O)NCCSSCCNC(=O)CCN` [β-alethine, Beta-alanyl cysteamine disulfide], the percent survival result in the data set on Cloudman S-91 melanoma is “increase the percent survival”. In addition, the survival rates result in the data set on NS-1 mouse myeloma is listed as “significantly increased survival rates”. Further, the “benefit as adjunct to chemotherapy” value in the data set on MOPC-315 myeloma and with B16 melanoma was “beneficial adjunct to chemotherapy” each time.
